Each compound was assayed against T1, Human pyruvate kinase R (PKR) (Homo sapiens, UniProt P30613) (assay: Biochemical assay for activation of pyruvate kinase R (Kinase-Glo luminescence, ATP generation)). Settings: 0.1 nM PKR, 2 mM FBP, 0.3 mM ADP, 0.1 mM PEP.
T1 construct: Human pyruvate kinase R (PKR), residues 14-574; 6x-His (N, cleaved yes); 8x-Arg (N, cleaved yes); SUMO (N, cleaved yes); host or cells: E. coli
Method in brief: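 E. coli-expressed human PKR, freed of its His-Arg-SUMO tag and purified by anion exchange and size exclusion, was tested for activation. Read-out was luminescent measurement of ATP generation with Kinase-Glo reagent.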

T1 sequence (P30613 14-574): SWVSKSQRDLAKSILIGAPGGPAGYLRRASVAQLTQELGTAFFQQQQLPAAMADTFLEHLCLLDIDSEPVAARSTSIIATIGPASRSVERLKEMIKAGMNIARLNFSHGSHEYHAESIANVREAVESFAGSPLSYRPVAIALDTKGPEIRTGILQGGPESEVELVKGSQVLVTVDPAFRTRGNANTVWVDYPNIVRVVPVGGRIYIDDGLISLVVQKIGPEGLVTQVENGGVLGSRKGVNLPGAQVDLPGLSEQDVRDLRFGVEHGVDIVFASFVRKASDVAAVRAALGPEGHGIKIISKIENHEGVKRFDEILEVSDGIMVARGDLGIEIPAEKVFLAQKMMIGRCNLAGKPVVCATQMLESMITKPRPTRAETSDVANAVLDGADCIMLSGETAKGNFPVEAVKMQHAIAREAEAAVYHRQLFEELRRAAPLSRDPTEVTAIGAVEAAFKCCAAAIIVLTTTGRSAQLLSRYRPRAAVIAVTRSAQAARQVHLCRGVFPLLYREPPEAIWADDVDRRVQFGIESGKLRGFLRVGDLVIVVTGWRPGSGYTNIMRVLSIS

| AC50 [nM] | Structure (SMILES) |
| --- | --- |
| 4.9 | O=C([C@H](CO)c1ccccc1F)N1Cc2cn(S(=O)(=O)c3ccc4ncsc4c3)nc2C1 [Compound 79, (2S)-1-[2-(1,3-benzothiazole-6-sulfonyl)-2H,4H,5H,6H-pyrrolo[3,4-c]pyrazol-5-yl]-2-(2-fluorophenyl)-3-hydroxypropan-1-one] |
| 2.1 | O=C([C@H](CO)c1ccccc1F)N1Cc2cn(S(=O)(=O)c3cnc4c(c3)OCCO4)nc2C1 [Compound 80, (2S)-1-(2-{2H,3H-[1,4]dioxino[2,3-b]pyridine-7-sulfonyl}-2H,4H,5H,6H pyrrolo[3,4-c]pyrazol-5-yl)-2-(2-fluorophenyl)-3-hydroxypropan-1-one] |
| 3.8 | O=CN[C@@H](C(=O)N1Cc2cn(S(=O)(=O)c3ccc4ncsc4c3)nc2C1)c1ccccc1Cl [Compound 81, N-[(1R)-2-[2-(1,3-benzothiazole-6-sulfonyl)-2H,4H,5H,6H-pyrrolo[3,4-c]pyrazol-5-yl]-1-(2-chlorophenyl)-2-oxoethyl]formamide] |
| 5 | O=C([C@H](CO)c1ccccc1)N1Cc2cn(S(=O)(=O)c3ccc4ncccc4c3)nc2C1 [Compound 82, (2S)-3-hydroxy-2-phenyl-1-[2-(quinoline-6-sulfonyl)-2H,4H,5H,6H-pyrrolo[3,4-c]pyrazol-5-yl]propan-1-one] |
| 7.9 | O=C([C@H](CO)c1ccccc1)N1Cc2cn(S(=O)(=O)c3cccc(OC(F)F)c3)nc2C1 [Compound 83, (2S)-1-{2-[3-(difluoromethoxy)benzenesulfonyl]-2H,4H,5H,6H-pyrrolo[3,4-c]pyrazol-5-yl}-3-hydroxy-2-phenylpropan-1-one] |
| 4.5 | O=C([C@H](CO)c1ccccc1F)N1Cc2cn(S(=O)(=O)c3ccc4occc4c3)nc2C1 [Compound 84, (2S)-1-[2-(1-benzofuran-5-sulfonyl)-2H,4H,5H,6H-pyrrolo[3,4-c]pyrazol-5-yl]-2-(2-fluorophenyl)-3-hydroxypropan-1-one] |
| 6.8 | O=C([C@H](CO)c1ccccc1F)N1Cc2cn(S(=O)(=O)c3ccc(OC(F)F)nc3)nc2C1 [Compound 85, (2S)-1-(2-[6-(difluoromethoxy)pyridin-3-yl]sulfonyl-2H,4H,5H,6H-pyrrolo[3,4-c]pyrazol-5-yl)-2-(2-fluorophenyl)-3-hydroxypropan-1-one] |
| 1.8 | O=C([C@H](CO)c1ccccc1Cl)N1Cc2cn(S(=O)(=O)c3cnc4occc4c3)nc2C1 [Compound 86, (2S)-2-(2-chlorophenyl)-1-(2-{furo[2,3-b]pyridine-5-sulfonyl}-2H,4H,5H,6H-pyrrolo[3,4-c]pyrazol-5-yl)-3-hydroxypropan-1-one] |
| 3 | COc1ccc(S(=O)(=O)n2cc3c(n2)CN(C(=O)[C@H](CO)c2ccccc2F)C3)cc1 [Compound 88, (2S)-2-(2-fluorophenyl)-3-hydroxy-1-[2-(4-methoxybenzenesulfonyl)-2H,4H,5H,6H-pyrrolo[3,4-c]pyrazol-5-yl]propan-1-one] |
| 430 | Cn1ncc2ccc(S(=O)(=O)n3cc4c(n3)CN(C(=O)[C@H](CO)c3ccccc3)C4)cc21 [Compound 90, (2S)-3-hydroxy-1-{2-[(1-methyl-1H-indazol-6-yl)sulfonyl]-2H,4H,5H,6H-pyrrolo[3,4-c]pyrazol-5-yl}-2-phenylpropan-1-one] |

More lines, now with the values behind:

| Structure (SMILES) | AC50 [nM] |
| --- | --- |
| N[C@@H](C(=O)N1Cc2cn(S(=O)(=O)c3ccc(OC(F)F)cc3)nc2C1)c1ccc(F)cc1 [Compound 49, (2R)-2-amino-1-{2-[4-(difluoromethoxy)benzenesulfonyl]-2H,4H,5H,6H-pyrrolo[3,4-c]pyrazol-5-yl}-2-(4-fluorophenyl)ethan-1-one] | 17 |
| N[C@@H](C(=O)N1Cc2cn(S(=O)(=O)c3ccc(OC(F)F)cc3)nc2C1)c1cccc(Cl)c1 [Compound 50, (2R)-2-amino-2-(3-chlorophenyl)-1-{2-[4-(difluoromethoxy)benzenesulfonyl]-2H,4H,5H,6H-pyrrolo[3,4-c]pyrazol-5-yl}ethan-1-one] | 71 |
| N[C@@H](C(=O)N1Cc2cn(S(=O)(=O)c3ccc(OC(F)F)cc3)nc2C1)c1ccc(Cl)cc1 [Compound 51, (2R)-2-amino-2-(4-chlorophenyl)-1-{2-[4-(difluoromethoxy)benzenesulfonyl]-2H,4H,5H,6H-pyrrolo[3,4-c]pyrazol-5-yl}ethan-1-one] | 23 |
| N[C@@H](C(=O)N1Cc2cn(S(=O)(=O)c3ccc4ncsc4c3)nc2C1)c1ccccc1Cl [Compound 52, (2R)-2-amino-1-[2-(1,3-benzothiazole-6-sulfonyl)-2H,4H,5H,6H-pyrrolo[3,4-c]pyrazol-5-yl]-2-(2-chlorophenyl)ethan-1-one] | 13 |
| N[C@@H](C(=O)N1Cc2cn(S(=O)(=O)c3ccc4ncsc4c3)nc2C1)c1cccc(Cl)c1 [Compound 53, (2R)-2-amino-1-[2-(1,3-benzothiazole-6-sulfonyl)-2H,4H,5H,6H-pyrrolo[3,4-c]pyrazol-5-yl]-2-(3-chlorophenyl)ethan-1-one] | 36 |
| N[C@@H](C(=O)N1Cc2cn(S(=O)(=O)c3ccc(OC(F)F)cc3)nc2C1)c1ccccc1F [Compound 56, (2R)-2-amino-1-{2-[4-(difluoromethoxy)benzenesulfonyl]-2H,4H,5H,6H-pyrrolo[3,4-c]pyrazol-5-yl}-2-(2-fluorophenyl)ethan-1-one] | 30 |
| N[C@@H](C(=O)N1Cc2cn(S(=O)(=O)c3ccc4c(c3)NCCO4)nc2C1)c1ccccc1F [Compound 57, (2R)-2-amino-1-[2-(3,4-dihydro-2H-1,4-benzoxazine-6-sulfonyl)-2H,4H,5H,6H-pyrrolo[3,4-c]pyrazol-5-yl]-2-(2-fluorophenyl)ethan-1-one] | 17 |
| N[C@@H](C(=O)N1Cc2cn(S(=O)(=O)c3ccc4c(c3)OCCO4)nc2C1)c1ccccc1F [Compound 58, (2R)-2-amino-1-[2-(2,3-dihydro-1,4-benzodioxine-6-sulfonyl)-2H,4H,5H,6H-pyrrolo[3,4-c]pyrazol-5-yl]-2-(2-fluorophenyl)ethan-1-one] | 25 |
| Cc1ccccc1[C@@H](N)C(=O)N1Cc2cn(S(=O)(=O)c3ccc4ncsc4c3)nc2C1 [Compound 59, (2R)-2-amino-1-[2-(1,3-benzothiazole-6-sulfonyl)-2H,4H,5H,6H-pyrrolo[3,4-c]pyrazol-5-yl]-2-(2-methylphenyl)ethan-1-one] | 48 |
| C[C@](N)(C(=O)N1Cc2cn(S(=O)(=O)c3ccc4ncsc4c3)nc2C1)c1ccccc1 [Compound 60, (2R)-2-amino-1-[2-(1,3-benzothiazole-6-sulfonyl)-2H,4H,5H,6H-pyrrolo[3,4-c]pyrazol-5-yl]-2-phenylpropan-1-one] | 77 |
| N[C@@H](C(=O)N1Cc2cn(S(=O)(=O)c3ccc4ncsc4c3)nc2C1)c1ccccc1Cl [Compound 63, (2R)-2-amino-1-[2-(1,3-benzothiazole-6-sulfonyl)-2H,4H,5H,6H-pyrrolo[3,4-c]pyrazol-5-yl]-2-(2-chlorophenyl)ethan-1-one] | 8.3 |
| N[C@@H](C(=O)N1Cc2cn(S(=O)(=O)c3ccc4occc4c3)nc2C1)c1ccccc1F [Compound 64, (2R)-2-amino-1-[2-(1-benzofuran-5-sulfonyl)-2H,4H,5H,6H-pyrrolo[3,4-c]pyrazol-5-yl]-2-(2-fluorophenyl)ethan-1-one] | 3.4 |
| O=C([C@H](O)c1ccccc1Cl)N1Cc2cn(S(=O)(=O)c3ccc4ncsc4c3)nc2C1 [Compound 65, (2R)-1-[2-(1,3-benzothiazole-6-sulfonyl)-2H,4H,5H,6H-pyrrolo [3,4-c]pyrazol-5-yl]-2-(2-chlorophenyl)-2-hydroxyethan-1-one] | 6.2 |
| O=C([C@H](O)c1ccccc1Cl)N1Cc2cn(S(=O)(=O)c3ccc4cn[nH]c4c3)nc2C1 [Compound 67, (2R)-2-(2-chlorophenyl)-2-hydroxy-1-[2-(1H-indazole-6-sulfonyl)-2H,4H,5H,6H-pyrrolo[3,4-c]pyrazol-5-yl]ethan-1-one] | 29 |
| O=C([C@H](O)c1ccccc1F)N1Cc2cn(S(=O)(=O)c3ccc(OC(F)F)cc3)nc2C1 [Compound 72, (2R)-1-[2-[4-(difluoromethoxy)benzenesulfonyl]-4H,6H-pyrrolo[3,4-c]pyrazol-5-yl]-2-(2-fluorophenyl)-2-hydroxyethanone] | 6 |
| O=CN[C@H](C(=O)N1Cc2cn(S(=O)(=O)c3ccc(OC(F)F)cc3)nc2C1)c1ccccc1 [Compound 73, N-[(1S)-2-{2-[4-(difluoromethoxy)benzenesulfonyl]-2H,4H,5H,6H-pyrrolo[3,4-c]pyrazol-5-yl}-2-oxo-1-phenylethyl]formamide] | 13 |
| O=C(N1Cc2cn(S(=O)(=O)c3ccc(OC(F)F)cc3)nc2C1)C1(c2ncccc2Cl)COC1 [Compound 75, 3-chloro-2-(3-{2-[4-(difluoromethoxy)benzenesulfonyl]-2H,4H,5H,6H-pyrrolo[3,4-c]pyrazole-5-carbonyl}oxetan-3-yl)pyridine] | 4.4 |
| O=C([C@H](CO)c1ccccc1)N1Cc2cn(S(=O)(=O)c3cnc4c(c3)OCCO4)nc2C1 [Compound 76, (2S)-1-(2-{2H,3H-[1,4]dioxino[2,3-b]pyridine-7-sulfonyl}-2H,4H,5H,6H-pyrrolo[3,4-c]pyrazol-5-yl)-3-hydroxy-2-phenylpropan-1-one] | 6.9 |
| COc1ccc(S(=O)(=O)n2cc3c(n2)CN(C(=O)[C@H](CO)c2ccccc2)C3)cn1 [Compound 77, (2S)-3-hydroxy-1-{2-[(6-methoxypyridin-3-yl)sulfonyl]-2H,4H,5H,6H-pyrrolo[3,4-c]pyrazol-5-yl}-2-phenylpropan-1-one] | 8.3 |
| O=CN[C@@H](C(=O)N1Cc2cn(S(=O)(=O)c3ccc(OC(F)F)cc3)nc2C1)c1ccccc1F [Compound 78, N-[(1R)-2-{2-[4-(difluoromethoxy)benzenesulfonyl]-2H,4H,5H,6H-pyrrolo[3,4-c]pyrazol-5-yl}-1-(2-fluorophenyl)-2-oxoethyl]formamide] | 4.7 |

Reference: patent US20230159538A1, “PYRROLIDINE-PYRAZOLES AS PYRUVATE KINASE ACTIVATORS” (Global Blood Therapeutics, Inc., priority 2020, published 2023)
